In ChEMBL document CHEMBL1201862, “PubChem BioAssay data set” (2004):
Activity calls are given as the source filed them.

Columns and labels:
[1] = target: SWI/SNF-related matrix-associated actin-dependent regulator of chromatin subfamily A member 2 (Homo sapiens, UniProt P51531); experiment: Luminescence-based cell-based high throughput dose response assay to identify activators of the function of SWI/SNF related, matrix associated, actin dependent regulator of chromatin, subfamily a, member 2 (SMARCA2, BRM).; type: functional
[2] = Counterscreen for activators of the function of SWI/SNF related, matrix associated, actin dependent regulator of chromatin, subfamily a, member 2 (SMARCA2, BRM): Luminescence-based cell-based high throughput dose response assay to identify non-selective compounds using the VP16 reporter assay.; type: functional
[3] = Luminescence Cell-Based Dose Retest to Confirm Inhibitors of Cancer Stem Cells. [Related pubchem assays (depositor defined):AID2717, AID2721]; type: functional; settings: Homo sapiens
[4] = target: Protein Wnt-3a (Mus musculus, UniProt P27467); experiment: Wnt3a-driven reporter signaling inhibition, dose response, selectivity assay for Gli-SUFU antagonist project, Wnt-LIGHT cells, luminescence (AID 651570); type: functional; settings: read-out: IC50_Mean;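 also: Wnt-LIGHT reporter cells stimulated with conditioned medium from Wnt3a-producing cells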
[5] = cells; type: functional, cell-based
[6] = target: T1, Trace amine-associated receptor 1 (Homo sapiens, UniProt Q96RJ0); experiment: Fluorescence-based cell-based high throughput dose response assay to identify agonists of the human trace amine associated receptor 1 (TAAR1).; type: functional
T1 sequence (Q96RJ0 whole entry): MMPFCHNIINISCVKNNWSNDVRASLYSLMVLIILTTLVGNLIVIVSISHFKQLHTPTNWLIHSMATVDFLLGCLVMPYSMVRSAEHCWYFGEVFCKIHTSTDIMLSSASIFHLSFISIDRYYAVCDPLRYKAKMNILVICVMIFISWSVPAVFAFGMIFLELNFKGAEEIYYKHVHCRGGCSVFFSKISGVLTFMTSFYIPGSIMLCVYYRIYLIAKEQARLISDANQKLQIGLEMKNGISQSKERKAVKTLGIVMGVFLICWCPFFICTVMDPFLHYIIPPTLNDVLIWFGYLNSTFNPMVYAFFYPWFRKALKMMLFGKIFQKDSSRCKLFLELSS

[7] = target: T1, Trace amine-associated receptor 1; experiment: Counterscreen for agonists of the human trace amine associated receptor 1 (hTAAR1): Fluorescence-based cell-based high throughput dose response assay to identify hTAAR1 agonist that also desensitize TAAR1 receptor response.; type: functional
[8] = cells; type: functional, cell-based; remark: listed apart in the source
[9] = Shn3 3'UTR reporter inhibitors, dose response, cell-based, Clone20 osteoblasts, firefly luciferase, cherry-picked (AID 624132); type: functional;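 also: firefly luciferase luminescence from reporter carrying the Shn3 3'UTR in osteoblasts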
[10] = HepG2 cell cytotoxicity, dose response, cytotoxicity control for Shn3 inhibitor project, CellTiter-Glo, cherry-picked (AID 624134); type: functional, cell-based
[11] = control 3'UTR Renilla luciferase suppression, dose response, counter-screen for Shn3 inhibitor project, cell-based, Clone20-Shn3RL, cherry-picked (AID 624133); type: functional
[12] = tested on: P388/ADR; experiment: cells; type: functional; settings: Mus musculus
[13] = tested on: SN12K1; experiment: cells; type: functional; settings: Homo sapiens
[14] = tested on: P388; experiment: cells; type: functional; settings: Mus musculus
[15] = target: ADP-ribosylation factor GTPase-activating protein 1 (Rattus norvegicus, UniProt Q62848); experiment: Fluorescence polarization-based biochemical high throughput dose response screening assay to identify inhibitors of ADP-ribosylation factor GTPase activating protein 1 (ARFGAP1).; type: functional
[16] = tested on: Vero; experiment: cells; type: functional, Chlorocebus sabaeus; settings: Chlorocebus sabaeus, Vero
[17] = target: Paired box protein Pax-8 (Homo sapiens, UniProt Q06710); experiment: inhibitors of PAX8-driven TPO luciferase reporter, dose response, RMG-I cells, cherry-pick (AID 687027); type: functional, cell-based;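 also: luciferase reporter driven by Pax8 target thyroperoxidase promoter measured by SteadyGlo luminescence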
[18] = A2780 ovarian cancer cell cytotoxicity, dose response, cytotoxicity control, plate reader, dry powder samples (AID 743046); type: functional, cell-based
[19] = NIH:OVCAR-3 ovarian cancer cell cytotoxicity, dose response, PAX8 inhibitor project, plate reader, dry powder samples (AID 743044); type: functional, cell-based
[20] = IGROV1 ovarian cancer cell cytotoxicity, dose response, PAX8 inhibitor project, plate reader, dry powder samples (AID 743043); type: functional, cell-based; settings: IGROV-1
[21] = cytotoxicity in OVCAR8 ovarian cancer cells, dose response, PAX8 project, cell-based, plate reader, dry powder samples (AID 743197); type: functional; settings: OVCAR-8
[22] = target: Beta-galactosidase (Escherichia coli, UniProt Q8VNN2); experiment: Dose response counterscreen for EBI2 assay utilizing the enzyme, b-galactosidase.; type: functional
[23] = target: Cytochrome P450 2C19 (Homo sapiens, UniProt P33261); experiment: Cytochrome panel assay with activity outcomes. Panel member name: p450-cyp2c19 Compounds with AC50 equal or less than 10 uM are considered active; type: functional; settings: read-out: AC50
[24] = target: Cytochrome P450 2C9 (Homo sapiens, UniProt P11712)
[25] = target: T2, Galanin receptor type 3 (Homo sapiens, UniProt O60755); experiment: Fluorescence-based cell-based primary high throughput dose response assay to identify antagonists of the Galanin Receptor 3 (GalR3).; type: functional
T2 sequence (O60755 whole entry): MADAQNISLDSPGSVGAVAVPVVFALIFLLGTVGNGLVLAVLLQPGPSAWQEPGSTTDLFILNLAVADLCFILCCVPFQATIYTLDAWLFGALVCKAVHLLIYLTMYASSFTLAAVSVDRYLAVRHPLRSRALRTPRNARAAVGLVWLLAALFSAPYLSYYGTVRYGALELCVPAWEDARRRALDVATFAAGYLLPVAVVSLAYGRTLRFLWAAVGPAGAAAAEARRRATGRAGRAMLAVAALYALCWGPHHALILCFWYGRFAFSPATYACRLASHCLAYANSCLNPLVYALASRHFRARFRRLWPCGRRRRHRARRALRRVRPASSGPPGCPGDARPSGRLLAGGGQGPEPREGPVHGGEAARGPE

[26] = cells; type: functional, cell-based; settings: HEK-CNG
[27] = target: T3, COUP transcription factor 2 (Homo sapiens, UniProt P24468); experiment: Luminescence-based cell-based high throughput dose response assay to identify inhibitors of COUP-TFII (NR2F2).; type: functional;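 also: HEK293 cells transiently cotransfected with COUP-TFII expression vector and reporter; luciferase reporter luminescence driven by COUP-TFII from the pX2-168 reporter plasmid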
T3 sequence (P24468 whole entry): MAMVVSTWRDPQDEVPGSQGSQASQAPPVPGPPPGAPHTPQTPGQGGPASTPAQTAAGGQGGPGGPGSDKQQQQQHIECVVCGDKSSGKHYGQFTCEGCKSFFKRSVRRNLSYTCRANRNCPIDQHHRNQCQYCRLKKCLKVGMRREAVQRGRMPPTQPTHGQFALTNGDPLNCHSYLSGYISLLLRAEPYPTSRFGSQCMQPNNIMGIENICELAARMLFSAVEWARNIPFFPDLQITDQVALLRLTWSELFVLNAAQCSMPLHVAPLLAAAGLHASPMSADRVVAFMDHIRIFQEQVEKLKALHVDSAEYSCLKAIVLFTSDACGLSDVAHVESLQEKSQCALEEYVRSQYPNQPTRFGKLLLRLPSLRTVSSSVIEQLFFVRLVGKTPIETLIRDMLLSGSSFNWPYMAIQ

[28] = target: Glucose-6-phosphate 1-dehydrogenase (Homo sapiens, UniProt P11413); experiment: human G6PD enzyme inhibitors, dose response, selectivity assay for P. falciparum G6PD inhibitor project, biochemical, fluorescence (AID 504792); type: functional

Sequence of Protein Wnt-3a (P27467 whole entry): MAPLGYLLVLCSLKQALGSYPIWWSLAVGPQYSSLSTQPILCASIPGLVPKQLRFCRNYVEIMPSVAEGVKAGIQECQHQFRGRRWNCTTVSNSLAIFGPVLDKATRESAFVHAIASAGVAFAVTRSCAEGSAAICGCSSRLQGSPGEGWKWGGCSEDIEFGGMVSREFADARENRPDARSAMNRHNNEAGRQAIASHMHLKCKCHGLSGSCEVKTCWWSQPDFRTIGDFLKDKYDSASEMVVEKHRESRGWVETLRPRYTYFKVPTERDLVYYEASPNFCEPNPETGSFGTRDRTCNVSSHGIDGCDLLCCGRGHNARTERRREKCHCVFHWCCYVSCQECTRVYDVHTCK
Sequence of SWI/SNF-related matrix-associated actin-dependent regulator of chromatin subfamily A member 2 (P51531 whole entry): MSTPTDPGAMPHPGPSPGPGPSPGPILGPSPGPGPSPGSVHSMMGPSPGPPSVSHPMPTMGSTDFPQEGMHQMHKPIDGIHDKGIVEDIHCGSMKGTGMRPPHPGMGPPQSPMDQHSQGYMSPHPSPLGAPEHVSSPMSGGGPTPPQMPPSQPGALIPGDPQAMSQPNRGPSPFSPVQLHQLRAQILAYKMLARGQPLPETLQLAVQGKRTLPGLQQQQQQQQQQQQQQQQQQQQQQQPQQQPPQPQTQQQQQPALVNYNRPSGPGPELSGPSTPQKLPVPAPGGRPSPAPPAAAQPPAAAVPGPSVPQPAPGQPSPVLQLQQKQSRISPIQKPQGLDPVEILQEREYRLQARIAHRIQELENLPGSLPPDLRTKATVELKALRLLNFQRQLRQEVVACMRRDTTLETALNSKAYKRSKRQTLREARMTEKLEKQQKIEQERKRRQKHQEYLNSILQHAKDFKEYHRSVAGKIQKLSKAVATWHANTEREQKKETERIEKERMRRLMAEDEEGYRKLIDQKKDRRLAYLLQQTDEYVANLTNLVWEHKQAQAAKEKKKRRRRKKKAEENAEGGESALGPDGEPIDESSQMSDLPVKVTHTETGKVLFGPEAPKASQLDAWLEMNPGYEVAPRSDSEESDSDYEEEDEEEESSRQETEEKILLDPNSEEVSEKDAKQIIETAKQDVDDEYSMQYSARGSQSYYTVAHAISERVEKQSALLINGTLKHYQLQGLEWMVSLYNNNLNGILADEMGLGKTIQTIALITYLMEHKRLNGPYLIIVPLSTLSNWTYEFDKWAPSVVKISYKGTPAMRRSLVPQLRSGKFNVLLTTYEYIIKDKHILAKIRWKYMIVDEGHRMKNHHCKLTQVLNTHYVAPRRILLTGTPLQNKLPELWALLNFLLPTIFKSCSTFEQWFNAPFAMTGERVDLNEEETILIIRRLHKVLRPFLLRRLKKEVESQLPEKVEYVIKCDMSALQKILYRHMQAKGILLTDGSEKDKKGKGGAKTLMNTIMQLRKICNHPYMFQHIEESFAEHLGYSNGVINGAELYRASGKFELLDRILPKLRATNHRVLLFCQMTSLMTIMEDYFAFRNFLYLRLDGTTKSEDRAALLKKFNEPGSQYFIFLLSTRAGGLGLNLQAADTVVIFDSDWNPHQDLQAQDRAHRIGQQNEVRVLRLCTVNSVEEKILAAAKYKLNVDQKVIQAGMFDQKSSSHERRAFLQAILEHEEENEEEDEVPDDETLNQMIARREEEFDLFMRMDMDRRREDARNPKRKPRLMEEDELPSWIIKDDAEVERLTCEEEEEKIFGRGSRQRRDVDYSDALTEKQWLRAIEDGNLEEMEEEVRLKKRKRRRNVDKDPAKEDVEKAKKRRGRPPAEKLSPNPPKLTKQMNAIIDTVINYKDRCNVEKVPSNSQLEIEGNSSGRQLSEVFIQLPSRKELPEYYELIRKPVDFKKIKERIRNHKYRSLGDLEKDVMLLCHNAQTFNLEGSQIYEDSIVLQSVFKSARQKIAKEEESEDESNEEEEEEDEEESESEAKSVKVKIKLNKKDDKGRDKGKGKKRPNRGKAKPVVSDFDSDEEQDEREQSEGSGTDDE
Sequence of Paired box protein Pax-8 (Q06710 whole entry): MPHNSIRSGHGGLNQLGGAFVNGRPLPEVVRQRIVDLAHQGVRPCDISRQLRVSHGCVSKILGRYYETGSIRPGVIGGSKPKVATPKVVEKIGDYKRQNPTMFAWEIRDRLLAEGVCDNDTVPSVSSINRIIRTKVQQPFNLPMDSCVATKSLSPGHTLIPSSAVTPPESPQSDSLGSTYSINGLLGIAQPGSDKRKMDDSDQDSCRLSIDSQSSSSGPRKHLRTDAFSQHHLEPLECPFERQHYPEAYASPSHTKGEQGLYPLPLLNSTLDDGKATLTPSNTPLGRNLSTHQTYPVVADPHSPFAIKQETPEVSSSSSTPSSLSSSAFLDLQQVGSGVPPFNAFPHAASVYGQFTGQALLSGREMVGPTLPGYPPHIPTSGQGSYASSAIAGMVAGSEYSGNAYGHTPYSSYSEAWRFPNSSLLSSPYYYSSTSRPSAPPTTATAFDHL
Sequence of Beta-galactosidase (Q8VNN2 whole entry): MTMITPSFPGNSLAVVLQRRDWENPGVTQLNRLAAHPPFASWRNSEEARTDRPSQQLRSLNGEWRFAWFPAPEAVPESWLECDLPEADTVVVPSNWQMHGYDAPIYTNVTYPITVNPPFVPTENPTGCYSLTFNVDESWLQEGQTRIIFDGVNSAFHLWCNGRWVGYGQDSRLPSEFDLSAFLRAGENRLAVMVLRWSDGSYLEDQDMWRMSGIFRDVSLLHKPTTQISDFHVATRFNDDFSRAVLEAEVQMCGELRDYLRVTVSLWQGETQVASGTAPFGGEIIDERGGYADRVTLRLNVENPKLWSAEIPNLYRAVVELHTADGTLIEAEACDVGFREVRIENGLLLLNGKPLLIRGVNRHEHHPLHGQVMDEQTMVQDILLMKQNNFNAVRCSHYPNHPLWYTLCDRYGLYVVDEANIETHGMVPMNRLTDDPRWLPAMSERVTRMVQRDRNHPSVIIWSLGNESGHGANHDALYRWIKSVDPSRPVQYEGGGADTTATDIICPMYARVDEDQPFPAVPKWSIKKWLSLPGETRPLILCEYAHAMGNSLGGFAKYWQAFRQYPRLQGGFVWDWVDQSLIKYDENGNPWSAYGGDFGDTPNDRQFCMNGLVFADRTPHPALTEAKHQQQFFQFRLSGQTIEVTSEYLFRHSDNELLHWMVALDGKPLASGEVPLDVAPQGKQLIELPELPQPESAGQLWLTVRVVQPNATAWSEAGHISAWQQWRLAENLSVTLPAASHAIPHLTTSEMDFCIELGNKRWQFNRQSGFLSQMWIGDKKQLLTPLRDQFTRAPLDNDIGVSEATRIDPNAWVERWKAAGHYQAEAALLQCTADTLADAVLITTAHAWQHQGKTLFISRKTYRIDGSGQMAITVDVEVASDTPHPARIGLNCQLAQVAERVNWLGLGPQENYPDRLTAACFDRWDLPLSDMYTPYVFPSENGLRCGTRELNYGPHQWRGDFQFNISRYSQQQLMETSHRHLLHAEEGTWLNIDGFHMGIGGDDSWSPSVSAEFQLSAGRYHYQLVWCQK
Sequence of Cytochrome P450 2C19 (P33261 whole entry): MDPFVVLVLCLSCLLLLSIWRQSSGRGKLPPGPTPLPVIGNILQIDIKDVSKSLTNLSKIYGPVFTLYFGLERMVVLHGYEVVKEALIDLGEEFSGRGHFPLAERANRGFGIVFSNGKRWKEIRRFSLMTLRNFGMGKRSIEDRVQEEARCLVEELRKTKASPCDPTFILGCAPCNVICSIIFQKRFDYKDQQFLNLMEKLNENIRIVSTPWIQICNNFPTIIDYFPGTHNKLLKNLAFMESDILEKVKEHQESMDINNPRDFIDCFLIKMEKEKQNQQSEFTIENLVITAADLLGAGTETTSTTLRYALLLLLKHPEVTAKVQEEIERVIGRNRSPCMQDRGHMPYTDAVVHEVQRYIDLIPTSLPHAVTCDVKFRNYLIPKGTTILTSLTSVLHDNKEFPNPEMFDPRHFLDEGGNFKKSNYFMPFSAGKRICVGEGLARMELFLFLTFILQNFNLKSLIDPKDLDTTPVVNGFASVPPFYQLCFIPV
Sequence of ADP-ribosylation factor GTPase-activating protein 1 (Q62848 whole entry): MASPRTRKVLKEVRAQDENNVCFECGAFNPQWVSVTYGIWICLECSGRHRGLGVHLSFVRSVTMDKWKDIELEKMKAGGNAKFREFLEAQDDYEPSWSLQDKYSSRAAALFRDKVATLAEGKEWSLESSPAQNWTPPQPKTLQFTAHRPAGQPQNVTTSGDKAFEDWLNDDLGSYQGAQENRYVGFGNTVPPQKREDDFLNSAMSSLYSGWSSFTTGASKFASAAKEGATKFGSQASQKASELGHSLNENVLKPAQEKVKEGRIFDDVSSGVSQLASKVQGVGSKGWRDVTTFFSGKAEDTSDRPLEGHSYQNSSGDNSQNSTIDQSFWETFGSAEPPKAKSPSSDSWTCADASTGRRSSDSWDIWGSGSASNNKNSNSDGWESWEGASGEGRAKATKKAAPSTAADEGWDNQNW
Sequence of Cytochrome P450 2C9 (P11712 whole entry): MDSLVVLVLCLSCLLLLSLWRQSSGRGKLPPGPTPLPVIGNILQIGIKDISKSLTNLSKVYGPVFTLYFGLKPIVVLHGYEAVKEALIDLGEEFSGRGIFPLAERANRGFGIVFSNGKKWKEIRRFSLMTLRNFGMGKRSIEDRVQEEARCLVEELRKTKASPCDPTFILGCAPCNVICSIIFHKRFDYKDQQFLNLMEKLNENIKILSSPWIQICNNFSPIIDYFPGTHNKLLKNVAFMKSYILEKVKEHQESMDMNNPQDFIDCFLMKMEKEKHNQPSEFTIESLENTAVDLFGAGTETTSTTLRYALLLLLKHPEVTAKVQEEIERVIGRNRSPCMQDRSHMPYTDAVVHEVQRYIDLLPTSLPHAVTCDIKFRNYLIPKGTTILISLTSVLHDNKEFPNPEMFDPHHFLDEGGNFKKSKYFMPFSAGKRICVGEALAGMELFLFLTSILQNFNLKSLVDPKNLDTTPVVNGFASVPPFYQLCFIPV

SMILES: CC(=O)NCCc1ccc(C(=O)COC(=O)c2cccs2)cc1
- EC50 [1]: > 91.1 µM (inactive)
- EC50 [2]: > 91.1 µM (inactive)

SMILES: CCOC(=O)c1c(NC(=O)C(=O)N/N=C/c2ccccc2O)sc2c1CCCCC2
- AC50 [3]: 2.31 µM (active)
- IC50 [4]: 6.55 µM (active)

SMILES: Oc1cnnc(Nc2ccccc2)n1
- IC50 [5]: > 29.9 µM (inactive)
- EC50 [6]: 4.6 µM (active)
- IC50 [7]: > 29.9 µM (inactive)
- EC50 [8]: > 29.9 µM (inactive)

SMILES: CN(Cc1ccc(OCC(O)CN2CCCCC2)cc1)Cc1ccnc2ccccc12 (stereo not drawn)
- AC50 [9]: 1.21 µM (active)
- AC50 [10]: 4.07 µM (active)
- AC50 [11]: 1.37 µM (active)
- IC50 [4]: 3.4 µM (active)

SMILES: N[C@@H](CSCSC[C@H](N)C(=O)O)C(=O)O
- GI50 [12]: > 225 µM (inactive)
- GI50 [13]: > 225 µM (inactive)
- GI50 [14]: > 71.1 µM (inactive)

SMILES: COC(=O)c1ccc(Nc2nc(-c3ccncc3)nc3ccccc23)cc1
- IC50 [15]: 98.4 µM (inactive)

SMILES: COc1ccc(OC)c(Cc2cnc3nc(N)nc(N)c3c2C)c1 [PIRITREXIM ISETHIONATE]
- CC50 [16]: 0.37 µM (active)
- IC50 [4]: 3.35 µM (active)

SMILES: Cc1ccccc1-c1nc(CS(=O)(=O)CC(=O)NCCc2ccccc2)c(C)o1
- IC50 [5]: > 29.9 µM (inactive)
- EC50 [6]: 3.59 µM (active)
- IC50 [7]: 8.58 µM (active)
- EC50 [8]: > 29.9 µM (inactive)

SMILES: Cc1ccc(NC(=O)COc2ccccc2C(N)=O)cc1S(=O)(=O)N1CCCCCC1
- IC50 [4]: 9.3 µM (active)

SMILES: COc1ccc(-c2ccc3c(c2)[C@@H]2[C@@H](CCN2C(=O)C2CCCCC2)[C@H](CO)N3C)cc1
- AC50 [17]: 6.75 µM (active)
- AC50 [18]: 10.7 µM (active)
- AC50 [19]: 25.2 µM (active)
- AC50 [20]: 47.5 µM (active)
- AC50 [21]: 32.7 µM (active)

SMILES: CN(C)S(=O)(=O)N1CCN(CC(O)COc2ccc3cc(Br)ccc3c2)CC1 (stereo not drawn)
- IC50 [22]: > 80 µM (inactive)

SMILES: C[C@@H]1CCCCO[C@@H](CN(C)C(=O)NC2CCCCC2)[C@H](C)CN([C@H](C)CO)C(=O)c2cc(NS(=O)(=O)c3ccc(Cl)cc3)ccc2O1
- AC50 [17]: 7.57 µM (active)
- AC50 [18]: 15.7 µM (active)
- AC50 [19]: 38.3 µM (active)
- AC50 [21]: > 70 µM (inactive)

SMILES: CC(C)=CC(=O)OC1C2C(C)=CC(O)C(O)C2(C)C2C3(O)OCC24C(CC(=O)OC14)C(C)C3O (stereo not drawn)
- GI50 [12]: 1.97 µM (inactive)
- GI50 [13]: 0.0259 µM (active)
- GI50 [14]: 0.0125 µM (active)

SMILES: O=C(COc1ccc2ccccc2c1)N1CCN(C(=O)c2cccnc2)CC1
- AC50 [23]: 15.8 µM (inconclusive)
- IC50 [22]: > 80 µM (inactive)
- AC50 [24]: 31.6 µM (inconclusive)

SMILES: O=C(N[C@@H](Cc1cccnc1)C(=O)N1CCC[C@H]1C(=O)NCCc1ccccc1Cl)C1CCCC1
- IC50 [5]: > 29.9 µM (inactive)
- EC50 [6]: 2.91 µM (active)
- IC50 [7]: 3.72 µM (active)
- EC50 [8]: > 29.9 µM (inactive)

SMILES: Fc1ccc(CN2CCN(c3ncc(Cc4ccccc4)cn3)CC2)c(Cl)c1
- IC50 [25]: 1.06 µM (active)
- EC50 [26]: > 29.9 µM (inactive)
- IC50 [27]: 10.1 µM (inactive)

SMILES: C=C1C(=O)[C@]23C[C@H]1CCC2[C@]1(C)C(=O)CC[C@@](C)(C(=O)O)C1C[C@@H]3O (stereo partly drawn)
- EC50 [1]: > 91.2 µM (inactive)
- EC50 [2]: > 91.2 µM (inactive)

SMILES: Cc1ccc(/C=C/C(=O)NC2CCCCCCC2)o1
- IC50 [28]: > 80 µM (inactive)
- EC50 [1]: > 91.1 µM (inactive)
- EC50 [2]: > 91.1 µM (inactive)

SMILES: N#Cc1c(N)sc2c1CCN(CCc1ccccc1)C2
- IC50 [5]: > 29.9 µM (inactive)
- EC50 [6]: 1.58 µM (active)
- IC50 [7]: 9.09 µM (active)
- EC50 [8]: > 29.9 µM (inactive)

SMILES: CCCCCCn1c(NCC)nc2c1c(=O)n(C)c(=O)n2C
- AC50 [9]: 0.834 µM (active)
- AC50 [10]: 2.55 µM (active)
- AC50 [11]: 9.18 µM (active)
- IC50 [25]: > 1.11 µM (active)
- EC50 [26]: > 29.9 µM (inactive)
- IC50 [27]: 9.46 µM (active)

SMILES: Cc1cc2c(ccc3c2no[n+]3[O-])nn1
- IC50 [25]: > 29.9 µM (inactive)
- EC50 [26]: > 29.9 µM (inactive)

SMILES: C[C@@H]1CN([C@H](C)CO)C(=O)c2cc(NC(=O)NC3CCCCC3)ccc2O[C@@H](C)CCCCO[C@H]1CN(C)Cc1ccc(C(F)(F)F)cc1
- AC50 [17]: 6.85 µM (active)
- AC50 [18]: 25.7 µM (active)
- AC50 [19]: 12.7 µM (active)
- AC50 [20]: 24.8 µM (active)
- AC50 [21]: 54.1 µM (active)
